In patent publication US11358957B2, “Microbiocidal oxadiazole derivatives” (SYNGENTA PARTICIPATIONS AG, priority 2017, dated 2022):

Key:
[1] = system: Puccinia recondita f. Sp. Tritici; experiment: Fungicidal activity against Puccinia recondita f. sp. tritici / wheat / leaf disc curative (brown rust); type: in vivo; conditions: foliar, 24 h, 200 ppm in the applied formulation, wheat leaf segments cv. Kanzler, curative (applied 1 day after inoculation), compared to untreated, read-out: disease control
Description: Leaf disks or leaf segments of various plant species are cut from plants grown in a greenhouse. The cut leaf disks or segments are placed in multiwell plates (24-well format) onto water agar. The leaf disks are sprayed with a test solution before (preventative) or after (curative) inoculation. Compounds to be tested are prepared as DMSO solutions (max. 10 mg/mL) which are diluted to the appropriate concentration with 0.025% Tween20 just before spraying. The inoculated leaf disks or segments are incubated under defined conditions (temperature, relative humidity, light, etc.) according to the respective test system. A single evaluation of disease level is carried out 3 to 14 days after inoculation, depending on the pathosystem. Percent disease control relative to the untreated check leaf disks or segments is then calculated. Wheat leaf segments cv. Kanzler are placed on agar in multiwell plates (24-well format). The leaf segments are then inoculated with a spore suspension of the fungus. Plates were stored in darkness at 19C and 75% relative humidity. The formulated test compound diluted in water was applied 1 day after inoculation. The leaf segments were incubated at 19° C. and 75% relative humidity under a light regime of 12 hours light/12 hours darkness in a climate cabinet and the activity of a compound was assessed as percent disease control compared to untreated when an appropriate level of disease damage appears in untreated check leaf segments (6 to 8 days after application). The following compounds at 200 ppm in the applied formulation give at least 80% disease control in this test when compared to untreated control leaf disks under the same conditions, which show extensive disease development.

[2] = system: Glomerella lagenarium (Colletotrichum lagenarium); experiment: Fungicidal activity against Glomerella lagenarium (Colletotrichum lagenarium) liquid culture / cucumber / preventative (anthracnose); type: cell-based; conditions: Colletotrichum orbiculare; 20 ppm in the applied formulation; liquid culture (PDB), inhibition of growth measured photometrically 3 to 4 days after application; compared to untreated; read-out: disease control
Description: Mycelia fragments or conidia suspensions of a fungus prepared either freshly from liquid cultures of the fungus or from cryogenic storage, are directly mixed into nutrient broth. DMSO solutions of the test compound (max. 10 mg/mL) are diluted with 0.025% Tween20 by a factor of 50 and 10 μL of this solution is pipetted into a microtiter plate (96-well format). The nutrient broth containing the fungal spores/mycelia fragments is then added to give an end concentration of the tested compound. The test plates are incubated in the dark at 24° C. and 96% relative humidity. The inhibition of fungal growth is determined photometrically after 2 to 7 days, depending on the pathosystem, and percent antifungal activity relative to the untreated check is calculated. Conidia of the fungus from cryogenic storage are directly mixed into nutrient broth (PDB—potato dextrose broth). After placing a (DMSO) solution of test compound into a microtiter plate (96-well format), the nutrient broth containing the fungal spores is added. The test plates are incubated at 24° C. and the inhibition of growth is measured photometrically 3 to 4 days after application. The following compounds at 20 ppm in the applied formulation give at least 80% disease control in this test when compared to untreated control under the same conditions, which show extensive disease development.

[3] = system: Puccinia recondita f. Sp. Tritici; experiment: Fungicidal activity against Puccinia recondita f. sp. tritici / wheat / leaf disc preventative (brown rust); type: in vivo; conditions: foliar, 200 ppm in the applied formulation, wheat leaf segments cv. Kanzler, preventative (inoculated 1 day after application), compared to untreated, read-out: disease control
Description: Leaf disks or leaf segments of various plant species are cut from plants grown in a greenhouse. The cut leaf disks or segments are placed in multiwell plates (24-well format) onto water agar. The leaf disks are sprayed with a test solution before (preventative) or after (curative) inoculation. Compounds to be tested are prepared as DMSO solutions (max. 10 mg/mL) which are diluted to the appropriate concentration with 0.025% Tween20 just before spraying. The inoculated leaf disks or segments are incubated under defined conditions (temperature, relative humidity, light, etc.) according to the respective test system. A single evaluation of disease level is carried out 3 to 14 days after inoculation, depending on the pathosystem. Percent disease control relative to the untreated check leaf disks or segments is then calculated. Wheat leaf segments cv. Kanzler were placed on agar in multiwell plates (24-well format) and sprayed with the formulated test compound diluted in water. The leaf disks were inoculated with a spore suspension of the fungus 1 day after application. The inoculated leaf segments were incubated at 19° C. and 75% relative humidity (rh) under a light regime of 12 hours light/12 hours darkness in a climate cabinet and the activity of a compound was assessed as percent disease control compared to untreated when an appropriate level of disease damage appears in untreated check leaf segments (7 to 9 days after application). The following compounds at 200 ppm in the applied formulation give at least 80% disease control in this test when compared to untreated control leaf disks under the same conditions, which show extensive disease development.

O=C(NCc1ccco1)c1ncn(Cc2ccc(-c3noc(C(F)(F)F)n3)s2)n1 [Compound 1.96, N-(2-furylmethyl)-1-[[5-[5-(trifluoromethyl)-1,2,4-oxadiazol-3-yl]-2-thienyl]methyl]-1,2,4-triazole-3-carboxamide]
≥ 80%: pest or weed control at 200 ppm [1] | inhibition of growth at 20 ppm [2] | pest or weed control at 200 ppm [3]

C#CCNC(=O)c1ncn(Cc2ccc(-c3noc(C(F)(F)F)n3)s2)n1 [Compound 1.98, N-prop-2-ynyl-1-[[5-[5-(trifluoromethyl)-1,2,4-oxadiazol-3-yl]-2-thienyl]methyl]-1,2,4-triazole-3-carboxamide]
≥ 80%: pest or weed control at 200 ppm [1] | inhibition of growth at 20 ppm [2] | pest or weed control at 200 ppm [3]

CC(C)(C)CNC(=O)c1cnn(Cc2ccc(-c3noc(C(F)(F)F)n3)s2)c1 [Compound 1.101, N-(2,2-dimethylpropyl)-1-[[5-[5-(trifluoromethyl)-1,2,4-oxadiazol-3-yl]-2-thienyl]methyl]pyrazole-4-carboxamide]
≥ 80%: pest or weed control at 200 ppm [1] | inhibition of growth at 20 ppm [2] | pest or weed control at 200 ppm [3]

CC(C)NC(=O)c1cnn(Cc2ccc(-c3noc(C(F)(F)F)n3)s2)c1 [Compound 1.102, N-isopropyl-1-[[5-[5-(trifluoromethyl)-1,2,4-oxadiazol-3-yl]-2-thienyl]methyl]pyrazole-4-carboxamide]
≥ 80%: pest or weed control at 200 ppm [1] | inhibition of growth at 20 ppm [2] | pest or weed control at 200 ppm [3]

CON(C)C(=O)c1cnn(Cc2ccc(-c3noc(C(F)(F)F)n3)s2)c1 [Compound 1.103, N-methoxy-N-methyl-1-[[5-[5-(trifluoromethyl)-1,2,4-oxadiazol-3-yl]-2-thienyl]methyl]pyrazole-4-carboxamide]
≥ 80%: pest or weed control at 200 ppm [1] | inhibition of growth at 20 ppm [2] | pest or weed control at 200 ppm [3]

O=C(NC1CCCCC1)c1cnn(Cc2ccc(-c3noc(C(F)(F)F)n3)s2)c1 [Compound 1.105, N-cyclohexyl-1-[[5-[5-(trifluoromethyl)-1,2,4-oxadiazol-3-yl]-2-thienyl]methyl]pyrazole-4-carboxamide]
≥ 80%: pest or weed control at 200 ppm [1] | inhibition of growth at 20 ppm [2] | pest or weed control at 200 ppm [3]

CCNC(=O)c1cnn(Cc2ccc(-c3noc(C(F)(F)F)n3)s2)c1 [Compound 1.106, N-ethyl-1-[[5-[5-(trifluoromethyl)-1,2,4-oxadiazol-3-yl]-2-thienyl]methyl]pyrazole-4-carboxamide]
≥ 80%: pest or weed control at 200 ppm [1] | inhibition of growth at 20 ppm [2] | pest or weed control at 200 ppm [3]

CC(C)CNC(=O)c1cnn(Cc2ccc(-c3noc(C(F)(F)F)n3)s2)c1 [Compound 1.109, N-isobutyl-1-[[5-[5-(trifluoromethyl)-1,2,4-oxadiazol-3-yl]-2-thienyl]methyl]pyrazole-4-carboxamide]
≥ 80%: pest or weed control at 200 ppm [1] | inhibition of growth at 20 ppm [2] | pest or weed control at 200 ppm [3]

CCNC(=O)c1ccn(Cc2ccc(-c3noc(C(F)(F)F)n3)s2)n1 [Compound 1.120, N-ethyl-1-[[5-[5-(trifluoromethyl)-1,2,4-oxadiazol-3-yl]-2-thienyl]methyl]pyrazole-3-carboxamide]
≥ 80%: pest or weed control at 200 ppm [1] | inhibition of growth at 20 ppm [2] | pest or weed control at 200 ppm [3]

C=CCNC(=O)c1ccn(Cc2ccc(-c3noc(C(F)(F)F)n3)s2)n1 [Compound 1.122, N-allyl-1-[[5-[5-(trifluoromethyl)-1,2,4-oxadiazol-3-yl]-2-thienyl]methyl]pyrazole-3-carboxamide]
≥ 80%: pest or weed control at 200 ppm [1] | inhibition of growth at 20 ppm [2] | pest or weed control at 200 ppm [3]

O=C(NC1CC1)c1ccn(Cc2ccc(-c3noc(C(F)(F)F)n3)s2)n1 [Compound 1.126, N-cyclopropyl-1-[[5-[5-(trifluoromethyl)-1,2,4-oxadiazol-3-yl]-2-thienyl]methyl]pyrazole-3-carboxamide]
≥ 80%: pest or weed control at 200 ppm [1] | inhibition of growth at 20 ppm [2] | pest or weed control at 200 ppm [3]

CCN(CC)C(=O)c1ccn(Cc2ccc(-c3noc(C(F)(F)F)n3)s2)n1 [Compound 1.128, N,N-diethyl-1-[[5-[5-(trifluoromethyl)-1,2,4-oxadiazol-3-yl]-2-thienyl]methyl]pyrazole-3-carboxamide]
≥ 80%: pest or weed control at 200 ppm [1] | inhibition of growth at 20 ppm [2] | pest or weed control at 200 ppm [3]

O=C(NCc1ccco1)c1cnn(Cc2ccc(-c3noc(C(F)(F)F)n3)s2)c1 [Compound 1.129, N-(2-furylmethyl)-1-[[5-[5-(trifluoromethyl)-1,2,4-oxadiazol-3-yl]-2-thienyl]methyl]pyrazole-4-carboxamide]
≥ 80%: pest or weed control at 200 ppm [1] | inhibition of growth at 20 ppm [2] | pest or weed control at 200 ppm [3]

O=C(Nc1ccccc1)c1ccn(Cc2ccc(-c3noc(C(F)(F)F)n3)s2)n1 [Compound 1.130, N-phenyl-1-[[5-[5-(trifluoromethyl)-1,2,4-oxadiazol-3-yl]-2-thienyl]methyl]pyrazole-3-carboxamide]
≥ 80%: pest or weed control at 200 ppm [1] | inhibition of growth at 20 ppm [2] | pest or weed control at 200 ppm [3]

CCCNC(=O)c1ccn(Cc2ccc(-c3noc(C(F)(F)F)n3)s2)n1 [Compound 1.137, N-propyl-1-[[5-[5-(trifluoromethyl)-1,2,4-oxadiazol-3-yl]-2-thienyl]methyl]pyrazole-3-carboxamide]
≥ 80%: pest or weed control at 200 ppm [1] | inhibition of growth at 20 ppm [2] | pest or weed control at 200 ppm [3]

CCC(C)NC(=O)c1ncn(Cc2ccc(-c3noc(C(F)(F)F)n3)s2)n1 (stereo not drawn) [Compound 1.144, N-sec-butyl-1-[[5-[5-(trifluoromethyl)-1,2,4-oxadiazol-3-yl]-2-thienyl]methyl]-1,2,4-triazole-3-carboxamide]
≥ 80%: pest or weed control at 200 ppm [1] | inhibition of growth at 20 ppm [2] | pest or weed control at 200 ppm [3]

CC(C)(C)CNC(=O)c1ncn(Cc2ccc(-c3noc(C(F)(F)F)n3)s2)n1 [Compound 1.145, N-(2,2-dimethylpropyl)-1-[[5-[5-(trifluoromethyl)-1,2,4-oxadiazol-3-yl]-2-thienyl]methyl]-1,2,4-triazole-3-carboxamide]
≥ 80%: pest or weed control at 200 ppm [1] | inhibition of growth at 20 ppm [2] | pest or weed control at 200 ppm [3]

C=CCNC(=O)c1ncn(Cc2ccc(-c3noc(C(F)(F)F)n3)s2)n1 [Compound 1.151, N-allyl-1-[[5-[5-(trifluoromethyl)-1,2,4-oxadiazol-3-yl]-2-thienyl]methyl]-1,2,4-triazole-3-carboxamide]
≥ 80%: pest or weed control at 200 ppm [1] | inhibition of growth at 20 ppm [2] | pest or weed control at 200 ppm [3]

CON(C)C(=O)c1ccnn1Cc1ccc(-c2noc(C(F)(F)F)n2)s1 [Compound 1.158, N-methoxy-N-methyl-2-[[5-[5-(trifluoromethyl)-1,2,4-oxadiazol-3-yl]-2-thienyl]methyl]pyrazole-3-carboxamide]
≥ 80%: pest or weed control at 200 ppm [1] | inhibition of growth at 20 ppm [2] | pest or weed control at 200 ppm [3]
